{"source": "paper PMC9954146", "about": "“Anti-Leukaemic Activity of Rilpivirine Is Mediated by Aurora A Kinase Inhibition” (Cancers, 2023)", "experiment_in_all_cases": "Kinase panel", "type_in_all_cases": "biochemical", "key": {"[1]": {"biological_target": "T1, Abl(m) (Mus musculus, UniProt P00520)", "T1 construct": "purchased Eurofins (KinaseProfiler)", "settings": "read-out: % Residual Activity", "how_it_was_run": "(§1)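 Radiometric kinase assay, ATP at Km for each enzyme; IC50 → Ki via Cheng–Prusoff. Part of a kinome-wide selectivity screen of rilpivirine.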"}, "[2]": {"biological_target": "T2, BrSK1(h) (Homo sapiens, UniProt Q8TDC3)", "T2 construct": "purchased Eurofins (KinaseProfiler)", "settings": "read-out: % Residual Activity", "how_it_was_run": "as §1"}, "[3]": {"biological_target": "T3, CDK1/cyclinB(h) (Homo sapiens, UniProt P06493)", "T3 construct": "purchased Eurofins (KinaseProfiler)", "settings": "read-out: % Residual Activity", "how_it_was_run": "as §1"}, "[4]": {"biological_target": "T4, CDKL3(h) (Homo sapiens, UniProt Q8IVW4)", "T4 construct": "purchased Eurofins (KinaseProfiler)", "settings": "read-out: % Residual Activity", "how_it_was_run": "as §1"}, "[5]": {"biological_target": "T5, DMPK(h) (Homo sapiens, UniProt Q09013)", "T5 construct": "purchased Eurofins (KinaseProfiler)", "settings": "read-out: % Residual Activity", "how_it_was_run": "as §1"}, "[6]": {"biological_target": "T6, EphA2(h) (Homo sapiens, UniProt P29317)", "T6 construct": "purchased Eurofins (KinaseProfiler)", "settings": "read-out: % Residual Activity", "how_it_was_run": "as §1"}, "[7]": {"biological_target": "T7, EphA4(h) (Homo sapiens, UniProt P54764)", "T7 construct": "purchased Eurofins (KinaseProfiler)", "settings": "read-out: % Residual Activity", "how_it_was_run": "as §1"}, "[8]": {"biological_target": "T8, Fes(h) (Homo sapiens, UniProt P07332)", "T8 construct": "purchased Eurofins (KinaseProfiler)", "settings": "read-out: % Residual Activity", "how_it_was_run": "as §1"}, "[9]": {"biological_target": "T9, GCN2(h) (Homo sapiens, UniProt Q9P2K8)", "T9 construct": "purchased Eurofins (KinaseProfiler)", "settings": "read-out: % Residual Activity", "how_it_was_run": "as §1"}, "[10]": {"biological_target": "T10, GRK1(h) (Homo sapiens, UniProt Q15835)", "T10 construct": "purchased Eurofins (KinaseProfiler)", "settings": "read-out: % Residual Activity", "how_it_was_run": "as §1"}, "[11]": {"biological_target": "T11, Lyn(h) (Homo sapiens, UniProt P07948)", "T11 construct": "purchased Eurofins (KinaseProfiler)", "how_it_was_run": "as §1"}, "[12]": {"biological_target": "T12, MLCK(h) (Homo sapiens, UniProt Q15746)", "T12 construct": "purchased Eurofins (KinaseProfiler)", "settings": "read-out: % Residual Activity", "how_it_was_run": "as §1"}, "[13]": {"biological_target": "T13, MLK1(h) (Homo sapiens, UniProt P80192)", "T13 construct": "purchased Eurofins (KinaseProfiler)", "settings": "read-out: % Residual Activity", "how_it_was_run": "as §1"}, "[14]": {"biological_target": "T14, MOK(h) (Homo sapiens, UniProt Q9UQ07)", "T14 construct": "purchased Eurofins (KinaseProfiler)", "settings": "read-out: % Residual Activity", "how_it_was_run": "as §1"}, "[15]": {"biological_target": "T15, Met(D1246H)(h) (Homo sapiens, UniProt P08581, D1228H)", "T15 construct": "purchased Eurofins (KinaseProfiler)", "settings": "read-out: % Residual Activity", "how_it_was_run": "as §1"}, "[16]": {"biological_target": "T16, Met(h) (Homo sapiens, UniProt P08581)", "T16 construct": "purchased Eurofins (KinaseProfiler)", "T16 sequence (P08581 25-1390)": "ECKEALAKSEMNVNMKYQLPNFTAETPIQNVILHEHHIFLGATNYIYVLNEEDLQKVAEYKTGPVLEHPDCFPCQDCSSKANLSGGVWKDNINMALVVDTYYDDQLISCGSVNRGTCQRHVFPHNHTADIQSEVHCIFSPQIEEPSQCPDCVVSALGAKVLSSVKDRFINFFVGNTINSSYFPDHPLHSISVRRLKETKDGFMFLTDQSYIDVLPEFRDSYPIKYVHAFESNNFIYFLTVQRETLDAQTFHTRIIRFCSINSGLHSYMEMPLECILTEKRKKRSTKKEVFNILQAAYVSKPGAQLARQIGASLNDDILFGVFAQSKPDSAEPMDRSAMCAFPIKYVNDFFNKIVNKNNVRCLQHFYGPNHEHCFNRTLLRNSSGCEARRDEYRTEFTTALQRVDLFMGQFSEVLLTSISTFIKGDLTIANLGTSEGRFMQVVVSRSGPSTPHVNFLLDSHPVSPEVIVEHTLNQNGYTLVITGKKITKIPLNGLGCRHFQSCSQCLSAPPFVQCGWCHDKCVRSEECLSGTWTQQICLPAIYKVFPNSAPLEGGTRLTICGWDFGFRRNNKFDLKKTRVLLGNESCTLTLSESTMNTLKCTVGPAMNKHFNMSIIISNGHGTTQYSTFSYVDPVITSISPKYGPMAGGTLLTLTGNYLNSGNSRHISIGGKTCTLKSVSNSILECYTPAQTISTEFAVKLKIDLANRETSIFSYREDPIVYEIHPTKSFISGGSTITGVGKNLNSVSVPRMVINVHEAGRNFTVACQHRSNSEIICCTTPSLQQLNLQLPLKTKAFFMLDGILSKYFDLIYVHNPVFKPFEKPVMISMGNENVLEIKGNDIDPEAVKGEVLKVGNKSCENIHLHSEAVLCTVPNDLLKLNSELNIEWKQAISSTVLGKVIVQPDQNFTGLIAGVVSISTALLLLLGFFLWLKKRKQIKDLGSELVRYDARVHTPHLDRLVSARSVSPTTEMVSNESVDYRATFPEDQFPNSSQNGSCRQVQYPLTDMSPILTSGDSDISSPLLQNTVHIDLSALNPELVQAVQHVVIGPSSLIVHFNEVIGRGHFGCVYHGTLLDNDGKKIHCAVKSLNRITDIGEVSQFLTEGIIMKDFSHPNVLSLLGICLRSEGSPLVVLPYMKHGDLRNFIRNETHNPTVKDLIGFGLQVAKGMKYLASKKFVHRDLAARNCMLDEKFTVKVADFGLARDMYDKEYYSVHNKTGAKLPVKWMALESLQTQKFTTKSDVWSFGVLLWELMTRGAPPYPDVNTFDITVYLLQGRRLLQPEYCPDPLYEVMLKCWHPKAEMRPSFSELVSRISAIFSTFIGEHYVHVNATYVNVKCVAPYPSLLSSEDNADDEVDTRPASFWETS", "settings": "read-out: % Residual Activity", "how_it_was_run": "as §1"}, "[17]": {"biological_target": "T17, NDR1(h) (Homo sapiens, UniProt Q15208)", "T17 construct": "purchased Eurofins (KinaseProfiler)", "settings": "read-out: % Residual Activity", "how_it_was_run": "as §1"}, "[18]": {"biological_target": "T18, NEK6(h) (Homo sapiens, UniProt Q9HC98)", "T18 construct": "purchased Eurofins (KinaseProfiler)", "settings": "read-out: % Residual Activity", "how_it_was_run": "as §1"}, "[19]": {"biological_target": "T19, NEK7(h) (Homo sapiens, UniProt Q8TDX7)", "T19 construct": "purchased Eurofins (KinaseProfiler)", "settings": "read-out: % Residual Activity", "how_it_was_run": "as §1"}, "[20]": {"biological_target": "T20, PAK2(h) (Homo sapiens, UniProt Q13177)", "T20 construct": "purchased Eurofins (KinaseProfiler)", "settings": "read-out: % Residual Activity", "how_it_was_run": "as §1"}, "[21]": {"biological_target": "T21, PAK4(h) (Homo sapiens, UniProt O96013)", "T21 construct": "purchased Eurofins (KinaseProfiler)", "settings": "read-out: % Residual Activity", "how_it_was_run": "as §1"}, "[22]": {"biological_target": "PI3 Kinase (p110a(E545K)/p85a)(h) (Homo sapiens, UniProt P42336, E545K)", "sequence (P42336 whole entry E545K)": "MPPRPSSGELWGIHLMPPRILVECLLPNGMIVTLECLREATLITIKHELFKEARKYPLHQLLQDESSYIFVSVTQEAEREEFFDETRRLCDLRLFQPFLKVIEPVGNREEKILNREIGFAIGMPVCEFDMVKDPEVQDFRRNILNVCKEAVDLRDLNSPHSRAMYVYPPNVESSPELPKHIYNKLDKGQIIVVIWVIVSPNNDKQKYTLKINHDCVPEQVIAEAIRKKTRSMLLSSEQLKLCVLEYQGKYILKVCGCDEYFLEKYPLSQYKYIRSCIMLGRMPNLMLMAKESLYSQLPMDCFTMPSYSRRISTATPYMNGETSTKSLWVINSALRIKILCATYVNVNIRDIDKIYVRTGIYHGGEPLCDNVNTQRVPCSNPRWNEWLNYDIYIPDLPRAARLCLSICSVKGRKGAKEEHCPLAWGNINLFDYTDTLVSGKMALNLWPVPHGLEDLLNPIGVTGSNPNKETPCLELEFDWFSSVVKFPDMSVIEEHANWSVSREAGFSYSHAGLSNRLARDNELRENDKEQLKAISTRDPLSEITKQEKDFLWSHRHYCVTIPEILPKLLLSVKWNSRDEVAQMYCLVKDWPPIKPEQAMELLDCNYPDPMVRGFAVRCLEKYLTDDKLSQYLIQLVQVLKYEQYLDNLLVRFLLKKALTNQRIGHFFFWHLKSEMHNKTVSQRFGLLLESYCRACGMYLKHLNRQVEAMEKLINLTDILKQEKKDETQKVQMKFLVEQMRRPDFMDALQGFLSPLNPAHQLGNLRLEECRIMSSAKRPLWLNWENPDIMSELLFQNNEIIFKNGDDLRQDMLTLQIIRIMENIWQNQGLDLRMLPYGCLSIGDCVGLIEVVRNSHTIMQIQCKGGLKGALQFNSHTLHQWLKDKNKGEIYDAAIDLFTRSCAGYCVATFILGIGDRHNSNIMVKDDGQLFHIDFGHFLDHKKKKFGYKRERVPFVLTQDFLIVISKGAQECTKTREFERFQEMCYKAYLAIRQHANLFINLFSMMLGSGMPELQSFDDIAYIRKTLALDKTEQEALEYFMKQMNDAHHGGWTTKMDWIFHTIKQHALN", "sequence (P27986 whole entry partner)": "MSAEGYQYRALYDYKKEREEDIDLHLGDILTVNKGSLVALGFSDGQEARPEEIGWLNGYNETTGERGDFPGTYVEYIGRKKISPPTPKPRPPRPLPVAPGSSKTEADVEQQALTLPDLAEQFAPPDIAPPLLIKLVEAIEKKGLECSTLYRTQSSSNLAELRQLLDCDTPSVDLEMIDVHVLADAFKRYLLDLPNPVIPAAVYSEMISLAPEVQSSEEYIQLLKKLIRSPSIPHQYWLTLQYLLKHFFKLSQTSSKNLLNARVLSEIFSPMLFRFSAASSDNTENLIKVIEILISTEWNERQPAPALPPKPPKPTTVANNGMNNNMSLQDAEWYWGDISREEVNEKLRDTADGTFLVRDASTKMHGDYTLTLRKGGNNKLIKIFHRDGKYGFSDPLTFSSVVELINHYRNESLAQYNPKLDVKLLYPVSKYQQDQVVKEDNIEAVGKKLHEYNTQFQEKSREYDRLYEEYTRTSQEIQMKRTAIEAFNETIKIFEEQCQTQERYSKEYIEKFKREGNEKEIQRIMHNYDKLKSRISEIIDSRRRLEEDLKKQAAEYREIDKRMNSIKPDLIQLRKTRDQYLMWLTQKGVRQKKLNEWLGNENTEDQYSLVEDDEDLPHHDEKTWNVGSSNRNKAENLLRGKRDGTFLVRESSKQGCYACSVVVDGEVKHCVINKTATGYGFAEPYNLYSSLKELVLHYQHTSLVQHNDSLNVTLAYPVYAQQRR", "settings": "read-out: % Residual Activity", "how_it_was_run": "as §1"}, "[23]": {"biological_target": "PI3 Kinase (p110b/p85b)(m) (Mus musculus, UniProt Q8BTI9)", "settings": "read-out: % Residual Activity", "how_it_was_run": "as §1"}, "[24]": {"biological_target": "T22, PI3 Kinase (p110d/p85a)(h) (Homo sapiens, UniProt O00329)", "T22 construct": "purchased Eurofins (KinaseProfiler)", "settings": "read-out: % Residual Activity", "how_it_was_run": "as §1"}, "[25]": {"biological_target": "PI3 Kinase (p110d/p85a)(m) (Mus musculus, UniProt O35904)", "settings": "read-out: % Residual Activity", "how_it_was_run": "as §1"}, "[26]": {"biological_target": "T23, PKCγ(h) (Homo sapiens, UniProt P05129)", "T23 construct": "purchased Eurofins (KinaseProfiler)", "settings": "read-out: % Residual Activity", "how_it_was_run": "as §1"}, "[27]": {"biological_target": "T24, PKD2(h) (Homo sapiens, UniProt Q9BZL6)", "T24 construct": "purchased Eurofins (KinaseProfiler)", "settings": "read-out: % Residual Activity", "how_it_was_run": "as §1"}, "[28]": {"biological_target": "T25, PKD3(h) (Homo sapiens, UniProt O94806)", "T25 construct": "purchased Eurofins (KinaseProfiler)", "settings": "read-out: % Residual Activity", "how_it_was_run": "as §1"}, "[29]": {"biological_target": "T26, PRKG2(h) (Homo sapiens, UniProt Q13237)", "T26 construct": "purchased Eurofins (KinaseProfiler)", "settings": "read-out: % Residual Activity", "how_it_was_run": "as §1"}, "[30]": {"biological_target": "T27, PTK5(h) (Homo sapiens, UniProt P42685)", "T27 construct": "purchased Eurofins (KinaseProfiler)", "settings": "read-out: % Residual Activity", "how_it_was_run": "as §1"}, "[31]": {"biological_target": "T28, Pim-3(h) (Homo sapiens, UniProt Q86V86)", "T28 construct": "purchased Eurofins (KinaseProfiler)", "settings": "read-out: % Residual Activity", "how_it_was_run": "as §1"}, "[32]": {"biological_target": "T29, Rse(h) (Homo sapiens, UniProt Q06418)", "T29 construct": "purchased Eurofins (KinaseProfiler)", "T29 sequence (Q06418 41-890)": "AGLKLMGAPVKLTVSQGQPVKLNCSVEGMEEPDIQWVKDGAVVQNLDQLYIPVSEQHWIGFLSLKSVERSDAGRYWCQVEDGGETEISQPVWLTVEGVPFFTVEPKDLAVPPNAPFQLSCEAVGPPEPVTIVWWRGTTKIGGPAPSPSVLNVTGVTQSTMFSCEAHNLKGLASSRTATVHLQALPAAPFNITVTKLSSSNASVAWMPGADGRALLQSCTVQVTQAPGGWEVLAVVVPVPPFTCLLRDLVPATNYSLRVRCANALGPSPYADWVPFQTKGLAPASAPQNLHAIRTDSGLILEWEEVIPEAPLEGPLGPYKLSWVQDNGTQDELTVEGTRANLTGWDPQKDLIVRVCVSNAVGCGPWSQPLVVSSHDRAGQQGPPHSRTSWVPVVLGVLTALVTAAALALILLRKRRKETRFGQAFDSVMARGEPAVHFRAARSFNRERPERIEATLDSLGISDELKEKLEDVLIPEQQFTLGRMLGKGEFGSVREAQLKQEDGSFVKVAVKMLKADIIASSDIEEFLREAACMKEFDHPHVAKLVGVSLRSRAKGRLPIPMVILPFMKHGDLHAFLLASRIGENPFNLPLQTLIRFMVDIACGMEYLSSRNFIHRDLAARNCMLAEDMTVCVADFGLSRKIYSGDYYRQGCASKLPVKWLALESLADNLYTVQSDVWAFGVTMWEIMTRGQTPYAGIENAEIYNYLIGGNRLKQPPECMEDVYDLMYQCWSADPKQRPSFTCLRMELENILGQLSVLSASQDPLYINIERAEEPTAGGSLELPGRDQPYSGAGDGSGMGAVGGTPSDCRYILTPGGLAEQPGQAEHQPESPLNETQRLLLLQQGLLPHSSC", "settings": "read-out: % Residual Activity", "how_it_was_run": "as §1"}, "[33]": {"biological_target": "T30, SGK3(h) (Homo sapiens, UniProt Q96BR1)", "T30 construct": "purchased Eurofins (KinaseProfiler)", "settings": "read-out: % Residual Activity", "how_it_was_run": "as §1"}, "[34]": {"biological_target": "T31, STK32C(h) (Homo sapiens, UniProt Q86UX6)", "T31 construct": "purchased Eurofins (KinaseProfiler)", "settings": "read-out: % Residual Activity", "how_it_was_run": "as §1"}, "[35]": {"biological_target": "T32, Syk(h) (Homo sapiens, UniProt P43405)", "T32 construct": "purchased Eurofins (KinaseProfiler)", "settings": "read-out: % Residual Activity", "how_it_was_run": "as §1"}, "[36]": {"biological_target": "T33, TAK1(h) (Homo sapiens, UniProt O43318)", "T33 construct": "purchased Eurofins (KinaseProfiler)", "settings": "read-out: % Residual Activity", "how_it_was_run": "as §1"}, "[37]": {"biological_target": "T34, Tec(h) activated (Homo sapiens, UniProt P42680)", "T34 construct": "purchased Eurofins (KinaseProfiler)", "settings": "read-out: % Residual Activity", "how_it_was_run": "as §1"}, "[38]": {"biological_target": "T35, Tie2(R849W)(h) (Homo sapiens, UniProt Q02763, R849W)", "T35 construct": "purchased Eurofins (KinaseProfiler)", "T35 sequence (Q02763 23-1124 R849W)": "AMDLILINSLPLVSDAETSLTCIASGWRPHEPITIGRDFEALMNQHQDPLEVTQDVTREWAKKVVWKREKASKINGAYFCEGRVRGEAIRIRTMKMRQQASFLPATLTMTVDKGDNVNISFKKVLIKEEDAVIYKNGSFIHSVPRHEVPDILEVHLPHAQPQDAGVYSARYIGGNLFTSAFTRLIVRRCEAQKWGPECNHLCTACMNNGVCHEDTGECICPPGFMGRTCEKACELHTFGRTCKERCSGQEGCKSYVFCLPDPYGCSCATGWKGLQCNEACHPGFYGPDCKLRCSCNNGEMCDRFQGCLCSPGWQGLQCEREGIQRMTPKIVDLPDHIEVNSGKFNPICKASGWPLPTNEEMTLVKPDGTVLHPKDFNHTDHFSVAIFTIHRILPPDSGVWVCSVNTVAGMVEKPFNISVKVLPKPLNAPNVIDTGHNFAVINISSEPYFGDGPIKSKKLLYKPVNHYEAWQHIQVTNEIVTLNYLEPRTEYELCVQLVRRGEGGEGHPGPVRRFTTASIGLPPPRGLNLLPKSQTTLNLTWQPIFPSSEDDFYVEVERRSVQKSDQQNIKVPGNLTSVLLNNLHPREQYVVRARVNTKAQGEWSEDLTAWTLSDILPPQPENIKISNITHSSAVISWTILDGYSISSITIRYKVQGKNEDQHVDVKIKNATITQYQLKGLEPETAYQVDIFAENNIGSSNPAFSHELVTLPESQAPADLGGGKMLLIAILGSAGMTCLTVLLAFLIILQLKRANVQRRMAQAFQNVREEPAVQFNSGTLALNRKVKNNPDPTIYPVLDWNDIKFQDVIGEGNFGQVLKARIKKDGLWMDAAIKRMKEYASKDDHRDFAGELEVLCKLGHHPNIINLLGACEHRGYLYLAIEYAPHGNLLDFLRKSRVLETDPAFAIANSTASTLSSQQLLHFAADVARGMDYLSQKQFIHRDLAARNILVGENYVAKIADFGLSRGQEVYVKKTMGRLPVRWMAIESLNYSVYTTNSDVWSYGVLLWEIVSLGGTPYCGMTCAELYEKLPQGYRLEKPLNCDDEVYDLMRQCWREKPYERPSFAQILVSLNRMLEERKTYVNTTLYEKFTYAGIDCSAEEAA", "settings": "read-out: % Residual Activity", "how_it_was_run": "as §1"}}, "data": [{"compound": "Cc1cc(/C=C/C#N)cc(C)c1Nc1ccnc(Nc2ccc(C#N)cc2)n1", "note": "[rilpivirine, (E)-4-((4-((4-(2-cyanoethenyl)-2,6-dimethylphenyl)amino)pyrimidin-2-yl)amino)benzonitrile]", "values": [{"measurement": "remaining activity at 1 µM", "setting": "[1]", "result": 63, "unit": "%"}, {"measurement": "remaining activity at 1 µM", "setting": "[2]", "result": 84, "unit": "%"}, {"measurement": "remaining activity at 1 µM", "setting": "[3]", "result": 105, "unit": "%"}, {"measurement": "remaining activity at 1 µM", "setting": "[4]", "result": 58, "unit": "%"}, {"measurement": "remaining activity at 1 µM", "setting": "[5]", "result": 100, "unit": "%"}, {"measurement": "remaining activity at 1 µM", "setting": "[6]", "result": 72, "unit": "%"}, {"measurement": "remaining activity at 1 µM", "setting": "[7]", "result": 93, "unit": "%"}, {"measurement": "remaining activity at 1 µM", "setting": "[8]", "result": 85, "unit": "%"}, {"measurement": "remaining activity at 1 µM", "setting": "[9]", "result": 93, "unit": "%"}, {"measurement": "remaining activity at 1 µM", "setting": "[10]", "result": 103, "unit": "%"}, {"measurement": "inhibition at 1 µM", "setting": "[11]; LYN, read-out: inhibitory activity", "result": "> 70", "unit": "%"}, {"measurement": "remaining activity at 1 µM", "setting": "[11]; read-out: % Residual Activity", "result": 23, "unit": "%"}, {"measurement": "remaining activity at 1 µM", "setting": "[12]", "result": 95, "unit": "%"}, {"measurement": "remaining activity at 1 µM", "setting": "[13]", "result": 81, "unit": "%"}, {"measurement": "remaining activity at 1 µM", "setting": "[14]", "result": 92, "unit": "%"}, {"measurement": "remaining activity at 1 µM", "setting": "[15]", "result": 95, "unit": "%"}, {"measurement": "remaining activity at 1 µM", "setting": "[16]", "result": 80, "unit": "%"}, {"measurement": "remaining activity at 1 µM", "setting": "[17]", "result": 89, "unit": "%"}, {"measurement": "remaining activity at 1 µM", "setting": "[18]", "result": 94, "unit": "%"}, {"measurement": "remaining activity at 1 µM", "setting": "[19]", "result": 110, "unit": "%"}, {"measurement": "remaining activity at 1 µM", "setting": "[20]", "result": 89, "unit": "%"}, {"measurement": "remaining activity at 1 µM", "setting": "[21]", "result": 87, "unit": "%"}, {"measurement": "remaining activity at 1 µM", "setting": "[22]", "result": 98, "unit": "%"}, {"measurement": "remaining activity at 1 µM", "setting": "[23]", "result": 97, "unit": "%"}, {"measurement": "remaining activity at 1 µM", "setting": "[24]", "result": 89, "unit": "%"}, {"measurement": "remaining activity at 1 µM", "setting": "[25]", "result": 99, "unit": "%"}, {"measurement": "remaining activity at 1 µM", "setting": "[26]", "result": 103, "unit": "%"}, {"measurement": "remaining activity at 1 µM", "setting": "[27]", "result": 115, "unit": "%"}, {"measurement": "remaining activity at 1 µM", "setting": "[28]", "result": 76, "unit": "%"}, {"measurement": "remaining activity at 1 µM", "setting": "[29]", "result": 92, "unit": "%"}, {"measurement": "remaining activity at 1 µM", "setting": "[30]", "result": 32, "unit": "%"}, {"measurement": "remaining activity at 1 µM", "setting": "[31]", "result": 89, "unit": "%"}, {"measurement": "remaining activity at 1 µM", "setting": "[32]", "result": 66, "unit": "%"}, {"measurement": "remaining activity at 1 µM", "setting": "[33]", "result": 99, "unit": "%"}, {"measurement": "remaining activity at 1 µM", "setting": "[34]", "result": 94, "unit": "%"}, {"measurement": "remaining activity at 1 µM", "setting": "[35]", "result": 79, "unit": "%"}, {"measurement": "remaining activity at 1 µM", "setting": "[36]", "result": 105, "unit": "%"}, {"measurement": "remaining activity at 1 µM", "setting": "[37]", "result": 105, "unit": "%"}, {"measurement": "remaining activity at 1 µM", "setting": "[38]", "result": 86, "unit": "%"}]}]}
